Data set [1] can be described thus: Solubilization of hydrophobic organic compound in aqueous sodium monooctyl glutarate (Na-MOG). It counts as physicochemical. Conditions: MOG 22.6 g, procedure of Example 1. From the text: The procedure of Example 1 is followed except that monooctyl glutarate (MOG, 22.6 g) and p-cymene (5 g) are used. The resulting mixture is a clear, homogeneous solution of p-cymene (˜4.4%) in aqueous sodium monooctyl glutarate (Na-MOG).

The nature of data set [2]: Control experiment: stirring hydrophobic compound with pure water. Conditions: for control experiment with water: outcome: compound stirred with water without solubilizer.
Data set [3] is described as follows: Dilution of the clear aqueous composition with an equal volume of water (clarity / emulsification). The format is physicochemical. To be noted: clear composition in aqueous Na-MMG diluted 1:1 with water. Here is the method: It may be desirable to dilute the aqueous compositions with water. The amount of water that can be added while maintaining a clear aqueous solution depends on many factors known to those skilled in the art, including the nature of the hydrophobic organic compound, the particular monoester salt, the concentration of each of these components, and other factors. In general, the desirability of diluting the aqueous composition is determined empirically.

The nature of data set [4]: Solubilization of hydrophobic organic compound in aqueous sodium monomenthyl glutarate (Na-MMG). Conditions: for concentration of hydrophobic compound in clear, homogeneous solution in aqueous Na-MMG: MMG neutralised with 8.8% aqueous sodium bicarbonate; for times better dissolved in aqueous Na-MMG than in pure water: aqueous Na-MMG vs pure water.
Procedure: Aqueous sodium bicarbonate (98 g, 8.8% solution) is added over about 20 minutes to a stirred mixture of monomenthyl glutarate (“MMG,” 25 g) and dodecane (3.0 g). After the addition is complete and CO2 evolution stops, the mixture is stirred for 2 h and is then allowed to settle. The resulting mixture is a clear, homogeneous solution of dodecane (˜2.5%) in aqueous sodium monomenthyl glutarate (Na-MMG).
A clear aqueous solution of Na-MMG is obtained by reacting monomenthyl glutarate (25 g) with aqueous sodium bicarbonate (98 g of 8.8% solution). […] The mixture stirs for about 2 h and is allowed to cool to ambient temperature. […] Dilution with an equal volume of water produces a solution that remains clear for more than 40 days.
Aqueous sodium bicarbonate (196 g, 8.8% solution) is added to a stirred mixture of monomenthyl glutarate (50 g) and N-ethyl-p-menthane-3-carboxamide (“WS-3,” 2.0 g). After the addition is complete and CO2 evolution stops, the mixture is stirred for 1 h and is then allowed to sit overnight. The resulting mixture is a clear, homogeneous solution of WS-3 (˜0.83%) in aqueous Na-MMG.
More WS-3 (1.0 g) is added to the aqueous composition. The mixture stirs for 1 h and is allowed to stand overnight. The mixture is filtered to remove undissolved crystals (0.6 g).
Dilution with an equal volume of water produces a solution that remains clear for more than 40 days.
Data set [5] is described as follows: Organoleptic test of physiological cooling effect.
Source text: The resulting mixture is a clear, homogeneous solution of WS-3 (˜0.83%) in aqueous Na-MMG.
Data set [6] in a line: Solubilization of hydrophobic organic compound in aqueous sodium monomenthyl succinate (Na-MMS). It counts as physicochemical. Conditions: MMS 23.7 g, procedure of Example 1. From the text: The procedure of Example 1 is followed except that monomenthyl succinate (MMS, 23.7 g) and p-cymene (3 g) are used. The resulting mixture is a clear, homogeneous solution of p-cymene (˜2.5%) in aqueous sodium monomenthyl succinate (Na-MMS).

`C=CC(C)(O)CCC=C(C)C` (stereo not drawn) [linalool]: the “concentration of hydrophobic compound in clear, homogeneous solution in aqueous Na-MOG” value (from here on “concentration … in aqueous Na-MOG”) in data set [1] is reported as about 2.7%. Moreover, in data set [2], the “control experiment with water: outcome” value is reported as “fail to produce a homogeneous mixture”.
Consider `CC(C)=CCCC(C)CCO` (stereo not drawn) [citronellol], for which the “time solution remains clear after dilution with an equal volume of water” value (“time solution remains clear” below) in data set [3] is given as “more than 40 days”. Also, the “control experiment with water: outcome” value in data set [2] was “fail to produce a homogeneous mixture”. In data set [4], the “concentration of hydrophobic compound in clear, homogeneous solution in aqueous Na-MMG” value (“concentration … in aqueous Na-MMG” for short) was about 3.6%.
As to `CCNC(=O)[C@@H]1C[C@H](C)CC[C@H]1C(C)C` [WS-3, N-ethyl-p-menthane-3-carboxamide], the “cooling effect when tested organoleptically” value in data set [5] (filtrate, ~1.0% WS-3 in aqueous Na-MMG) is reported as “strong cooling effect”. In addition, the “cooling effect when tested organoleptically” value in data set [5] (~0.83% WS-3 in aqueous Na-MMG, pH 7.4) was “strong cooling effect”. Moreover, the “solubility in pure water” value in data set [2] (20° C.) is recorded as about 0.03%. In data set [4], the “concentration … in aqueous Na-MMG” value is recorded as about 0.83% and the “times better dissolved in aqueous Na-MMG than in pure water” value (“times better dissolved” below) was “about 33 times”. In addition, the “concentration of WS-3 in filtrate (aqueous Na-MMG) after removing undissolved crystals” value in data set [4] (more WS-3 added, stood overnight, filtered) is recorded as about 1.0%.
As to `CC(C)[C@@H]1CC[C@@H](C)C[C@H]1OC(=O)[C@H](C)O` [l-menthyl lactate], the “time solution remains clear” value in data set [3] is on record as “more than 40 days”. In addition, in data set [2], the “control experiment with water: outcome” value is recorded as “fail to produce a homogeneous mixture”.
As for `CC(C)=CCCC(C)CC#N` (stereo not drawn) [citronellyl nitrile], the “emulsification after dilution with an equal volume of water” value (“emulsification after dilution” below) in data set [3] is reported as “immediately produces an emulsion”. The “control experiment with water: outcome” value in data set [2] is listed as “fail to produce a homogeneous mixture”. The “concentration … in aqueous Na-MMG” value in data set [4] is on record as about 3.6%.
Take `Cc1ccc(C(C)C)cc1` [p-cymene]: in data set [3], the “emulsification after dilution” value is at most 2 days. Further, the “concentration … in aqueous Na-MOG” value in data set [1] is on record as about 4.4%. Also, the “concentration of hydrophobic compound in clear, homogeneous solution in aqueous Na-MMS” value in data set [6] is listed as about 2.5%. In addition, the “control experiment with water: outcome” value in data set [2] is “fail to produce a homogeneous mixture”. Moreover, in data set [4], the “concentration … in aqueous Na-MMG” value is reported as about 3.6%.
With `CCCCCCCCCCCC` [dodecane], in data set [3], the “emulsification after dilution” value is reported as “emulsifies within two days”. Further, in data set [2] (12 g stirred with 876 g water for 2 h), the “undissolved compound recovered after settling” value is given as 11.6 g. In addition, in data set [2], the “control experiment with water: outcome” value is given as “fails to produce a homogeneous mixture”. In addition, in data set [4], the “concentration … in aqueous Na-MMG” value is about 2.5% and the “times better dissolved” value is listed as “at least 50 times”.
`CC(C)[C@@H]1CC[C@@H](C)C[C@H]1O` [l-menthol]: in data set [3], the “time solution remains clear” value is recorded as “more than 40 days”. For the same compound, the “physiological cooling effect (organoleptic test)” value in data set [5] (~2.5% l-menthol solution in aqueous Na-MMG) is given as “strong physiological cooling effect”. Further, the “menthol content of aqueous solution in pure water control (gas chromatography)” value in data set [2] (12 g in 876 g water, 2 h, initially 47° C. then ambient, filtered) stood at 0.06%. Also, the “control experiment with water: outcome” value in data set [2] is given as “no homogeneous mixture results”. Besides, in data set [4], the “concentration … in aqueous Na-MMG” value is listed as about 2.5% and the “times better dissolved” value is on record as “at least 40 times”.
Regarding `Cc1c(C)c2c(c(C)c1O)CCC(C)(CCCC(C)CCCC(C)CCCC(C)C)O2` (stereo not drawn) [α-tocopherol], the “time solution remains clear” value in data set [3] is “more than 40 days”. Further, the “concentration … in aqueous Na-MOG” value in data set [1] was about 2.6%. In data set [2], the “control experiment with water: outcome” value is listed as “fail to produce a homogeneous mixture”.
`C=C(C)[C@H]1CC=C(C)CC1` [d-limonene]: the “control experiment with water: outcome” value in data set [2] is recorded as “fails to produce a homogeneous mixture”.
As for `C=C(C)[C@@H]1CC=C(C)C(=O)C1` [l-carvone], in data set [3], the “time solution remains clear” value is on record as “more than 40 days”. For the same compound, the “control experiment with water: outcome” value in data set [2] is reported as “fail to produce a homogeneous mixture”. Moreover, in data set [4], the “concentration … in aqueous Na-MMG” value is about 3.6%.

(Values after patent publication US7652067B2, “Aqueous compositions containing monoester salts” (Millenium Specialty Chemicals, Inc., priority 2006, dated 2010).)
